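Cultured in 96-well plates, cells were exposed to test compound for 48 hours across five concentrations. Here, GI50 denotes the concentration required for 50% inhibition of growth. TGI is the concentration that stops growth completely.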
Experiments:
Experiment in all cases: NCI tumour cell line growth inhibition, 48 h
M19-MEL melanoma = system: M19-MEL melanoma
SF-539 CNS = system: SF-539 CNS
K-562 leukemia = system: K-562 leukemia
TK-10 renal = system: TK-10 renal
SNB-19 CNS = system: SNB-19 CNS
NCI-H460 lung = system: NCI-H460 lung
RXF 393 renal = system: RXF 393 renal
DMS 273 small cell lung = system: DMS 273 small cell lung
HCT-15 colon = system: HCT-15 colon
HOP-92 NSCLC = system: HOP-92 NSCLC

SMILES	TGI (M19-MEL melanoma)	TGI (SF-539 CNS)	TGI (K-562 leukemia)	TGI (TK-10 renal)	TGI (SNB-19 CNS)	TGI (NCI-H460 lung)	TGI (RXF 393 renal)	TGI (DMS 273 small cell lung)	TGI (HCT-15 colon)	TGI (HOP-92 NSCLC)	GI50 (SF-539 CNS)	GI50 (K-562 leukemia)	GI50 (TK-10 renal)	GI50 (SNB-19 CNS)	GI50 (NCI-H460 lung)	GI50 (RXF 393 renal)	GI50 (HCT-15 colon)	GI50 (HOP-92 NSCLC)
Cc1c2c(c(C)c3c1[nH]c1ccccc13)CN(C)CC2	30.7 µM	27.6 µM	> 100 µM	51.1 µM	> 100 µM	35.5 µM	34.6 µM	34.3 µM	31 µM	57.5 µM								
O=C1OC(=O)C2C3C=CC(C12)C1C2C=CC2C31 (stereo not given)	> 100 µM	> 100 µM	> 100 µM	> 100 µM	> 100 µM	> 100 µM	> 100 µM	> 100 µM		> 100 µM								
CCn1c2ccccc2c2c(-c3ccccc3)cc3c(c21)C(=O)N(c1ccccc1)C3=O	> 100 µM	> 100 µM	> 100 µM	> 100 µM	> 100 µM	> 100 µM		> 100 µM	> 100 µM	90.5 µM								
NC(=O)NC1C(C(=O)O)N(Cc2ccccc2)C(=O)N1Cc1ccccc1 (stereo not given)	> 100 µM	> 100 µM	> 100 µM	> 100 µM	> 100 µM	> 100 µM			> 100 µM	> 100 µM								
CC(=O)c1ccc(NC(=O)COC(=O)c2cccc3c(=O)c4ccccc4[nH]c23)cc1	> 100 µM	33.9 µM	> 100 µM	60.6 µM	68.6 µM	> 100 µM	> 100 µM			> 100 µM								
Cc1nc2cc(Nc3ccccc3C(=O)O)ccc2s1	> 100 µM	> 100 µM	> 100 µM	> 100 µM	> 100 µM	> 100 µM	> 100 µM	> 100 µM	> 100 µM	> 100 µM								
Cn1cc(C(=O)c2ccccc2)cc(C(=O)c2ccccc2)c1=O	> 100 µM	> 100 µM	> 100 µM	> 100 µM	> 100 µM	> 100 µM	> 100 µM	> 100 µM	> 100 µM	> 100 µM								
NC(=O)c1sc(-n2cnc3cc(C(F)(F)F)ccc32)cc1OCc1ccccc1Br		> 25 µM	> 25 µM	> 25 µM	> 25 µM	> 25 µM	> 25 µM		> 25 µM	> 25 µM	24.9 µM	24.7 µM	> 25 µM	> 19.1 µM	> 19.6 µM	> 12.9 µM	> 25 µM	8.02 µM
COc1ccc(NC(=O)CC(=O)n2nc(C)c(N=Nc3ccccc3C(=O)O)c2C)cc1	> 100 µM	> 100 µM	> 100 µM	> 100 µM	> 100 µM	> 100 µM		> 100 µM	> 100 µM									
NC1(Cc2ccc(Cl)cc2)CCN(c2ncnc3[nH]ccc23)CC1		12.6 µM	19.4 µM	14.8 µM	21.3 µM	13.3 µM	7.12 µM		23.9 µM	7.06 µM	2.21 µM	4.66 µM	3.17 µM	5.33 µM	2.31 µM	1.41 µM	5.64 µM	1.09 µM
CCOC(=O)Nc1cc2ccccc2c(N=Nc2ccccc2)c1O		35.8 µM	> 100 µM	> 100 µM	> 100 µM	> 100 µM	69.4 µM		> 100 µM	> 100 µM								
COc1cc2c(c(OC)c1OC)-c1ccc(N=NC(N)=S)c(=O)cc1[C@@H](NC(C)=O)CC2			> 100 µM	> 100 µM	> 100 µM	12.2 µM	> 100 µM		> 100 µM	98.8 µM	0.311 µM	0.425 µM	9.01 µM	0.578 µM	0.418 µM	0.937 µM	6 µM	1.97 µM
CC(=O)Nc1n[n+]([O-])c2cc(C)ccc2[n+]1[O-]		5.36 µM	> 49.3 µM	58.1 µM	23.3 µM	2.14 µM	22.6 µM		14.9 µM	7.29 µM								
CCCCOC1OC(COC(=O)C(C)C)C(OC(=O)C(C)C)C(O)C1OC1OC(C)C(OC(=O)CCC)C(OC(=O)C(C)C)C1O (stereo not given)		34.8 µM	14.3 µM	25.9 µM	31.3 µM	27.8 µM	31.2 µM		27.3 µM	25.9 µM	20.5 µM	3.09 µM	13.2 µM	16.5 µM	11.6 µM	8.41 µM	14.2 µM	13.2 µM
COc1cnc2c(c1)C(=O)c1c-2n(CCCN2CCC(O)CC2)c(=O)c2cc(Cl)ccc12		1.64 µM	6.34 µM	28.7 µM	3.46 µM	1.27 µM	1.72 µM		2.55 µM	34.8 µM	0.433 µM	1.43 µM	13 µM	0.243 µM	0.0371 µM	0.347 µM	1.17 µM	15.5 µM
N#CC1=C(O)NC(O)=C(C#N)C1c1ccc(C2C(C#N)=C(O)NC(O)=C2C#N)cc1	> 100 µM	> 100 µM	> 100 µM	> 100 µM	> 100 µM	> 100 µM	> 100 µM	> 100 µM	> 100 µM									
Cc1cc(Cl)ccc1C(=O)c1ccc2ccccc2c1C(=O)O		> 100 µM	> 100 µM	> 100 µM	> 100 µM	> 100 µM	> 100 µM		> 100 µM	> 100 µM								
CCN1C(=NCCO)NS(=O)(=O)c2ccccc21		> 100 µM	> 100 µM	> 100 µM	> 100 µM	> 100 µM	> 100 µM		> 100 µM	> 100 µM								
CN(C)c1cccc(F)c1C(=O)NC(=O)Nc1ccc(Cl)cc1		> 100 µM	> 34.4 µM	> 100 µM	> 100 µM	> 100 µM	69.6 µM		> 31.5 µM	> 100 µM								
CCOc1ccc2c(c1)c(CC(=O)O)cn2C		> 100 µM	> 100 µM	> 100 µM	> 100 µM	> 100 µM	> 100 µM		> 100 µM	> 100 µM								
OCCN(CCO)c1cccc(N(CCO)CCO)n1	> 100 µM		> 100 µM	> 100 µM	> 100 µM	> 100 µM	> 100 µM	> 100 µM	> 100 µM	> 100 µM								
COc1ccc(CCN2CCC(CN(C)Cc3cnn(-c4ccccc4)c3)CC2)cc1		8.08 µM	10.9 µM	32.6 µM	66 µM	39.2 µM	24.1 µM		18.5 µM	19.3 µM	2.77 µM	3.14 µM	16.3 µM	21.2 µM	18.7 µM	7.74 µM	4.49 µM	4.61 µM
COc1cc(C(C)O)c[n+](CCC2CNc3ccccc32)c1 (stereo not given)	> 100 µM	> 100 µM	> 100 µM		> 100 µM	> 100 µM		> 100 µM	> 100 µM									
CCn1c(CCl)nc2c1C(=O)c1ccccc1C2=O		4.89 µM	> 100 µM	8.73 µM	3.59 µM	3.9 µM	3.29 µM		3.19 µM	3.75 µM								
COCCOCCOCc1n(Cc2ccc3ccccc3n2)c2ccccc2[n+]1Cc1ccc2ccccc2n1		13.6 µM	13.2 µM	16.2 µM	13.5 µM	12.4 µM	9.7 µM		52 µM	2.74 µM	0.852 µM	0.421 µM	4.02 µM	0.444 µM	1.87 µM	1.23 µM	15.8 µM	0.217 µM
COc1ccc(NCC(=O)Nn2c(-c3ccccc3)nc3ccccc3c2=O)cc1		> 100 µM	> 100 µM	> 100 µM	> 100 µM	> 100 µM	> 10 µM		> 100 µM	> 100 µM								
CN1CCN(c2nc(-c3csc(-c4cccs4)n3)cc3ccccc23)CC1		3.04 µM	4.92 µM	3.65 µM	5.36 µM	3.25 µM	3.9 µM		3.15 µM	3.75 µM	1.64 µM	2.16 µM	1.98 µM	2.14 µM	1.78 µM	1.78 µM	1.63 µM	1.44 µM
COC(=O)Cc1cc(=O)[nH]c2c1C(=O)CCC2		> 100 µM	> 100 µM	> 100 µM	> 100 µM	> 100 µM	> 100 µM		> 100 µM	> 100 µM								
CC(C)(C)OC(=O)NCc1cccc(N=C=S)c1		59.7 µM	> 88.2 µM	70.8 µM	44.7 µM	46.1 µM	36.1 µM		36.5 µM	62.2 µM	21.1 µM	28.4 µM	25.8 µM	17.6 µM	20.5 µM	16.8 µM	16.6 µM	14.6 µM
O=[N+]([O-])c1cc2no[n+]([O-])c2cc1N1CCCCC1		> 20.1 µM	7.98 µM	9.08 µM	35.5 µM	56.6 µM	3.29 µM		11.9 µM	7.04 µM								
